Data published in patent US9440978B2, “Imidazolo-, oxazolo-, and thiazolopyrimidine modulators of TRPV1” (Janssen Pharmaceutica NV, priority 2007, dated 2016).
pIC50: −log10 of the molar value. Where a name gives a salt, the structure may show the parent alone.

Tests used:
human TRPV1 = target: T1, human TRPV1 (Homo sapiens, UniProt Q8NER1); test: Block of capsaicin-induced Ca2+ influx, human assay (hTRPV1/HEK293, FLIPR); format: cell-based; details: HEK293 cells transfected with human TRPV1; 150 nM capsaicin challenge; mean; > value = solubility limit in assay medium
T1 construct: expressed in transfected cells; host or cells: HEK293
Experimental: (§1) HEK293 cells were transfected with human TRPV1 cloned in pcDNA3.1zeo(+) using the Effectene non-liposomal lipid based transfection kit (Qiagen) (hTRPV1/HEK293). hTRPV1/HEK293 cells were routinely grown as monolayers under selection in zeocin (200 μg/mL; Invitrogen) in Dulbecco's Modified Eagle Medium (DMEM, Gibco BRL) supplemented with 10% fetal bovine serum, and penicillin/streptomycin (50 units/mL) in 5% CO2 at 37° C. Cells were passaged frequently, every 3-5 days, to avoid overgrowth, depletion of essential medium components, or acidic medium exposure. Cells were passaged using a brief wash in 0.05% trypsin with 1 mM EDTA, followed by dissociation in divalent-free phosphate-buffered saline (Hyclone #SH30028.02). […] The assay buffer was composed of 130 mM NaCl, 2 mM KCl, 2 mM MgCl2, 10 mM HEPES, 5 mM glucose, and either 2 mM or 20 μM CaCl2. On the day of the experiment, the culture medium was replaced with 2 mM calcium assay buffer using an automated plate washer (ELx405; Biotek, VT). […] After loading the cells, the dye solution was replaced with 50 μL/well of 20 μM calcium assay buffer using the ELx405 plate washer. Test compounds (50 μL/well) were added to the plate and incubated for 30 min. Intracellular Ca^2+ levels were subsequently assayed using a Fluorometric Imaging Plate Reader (FLIPR™ instrument, Molecular Devices, CA) to simultaneously monitor Fluo-3 fluorescence in all wells (λexcitation=488 nm, λemission=540 nm) during challenge with agonist (capsaicin). The IC50 values were determined. […] The contents of the wells were mixed 3 times (40 μL mix volume) immediately after the additions were made. Concentration-dependence of block was determined by exposing each well of cells in duplicate rows of a 96-well plate to a serial dilution of test compound. The concentration series usually started at 10 μM with a three-fold serial decrement in concentration. The magnitude of the capsaicin response was determined by measuring the change in fluo3 fluorescence before and 100 seconds after the addition of the agonist. Data were analyzed using a non-linear regression program (Origin; OriginLab, MA).
(§2) IC50 values shown are the average (mean) of the results obtained. […] Compounds were tested as in the free base, trifluoroacetic acid salt, or hydrochloride salt form.

rat TRPV1 = target: T2, rat TRPV1 (Rattus norvegicus, UniProt O35433); test: Block of capsaicin-induced Ca2+ influx, rat assay (rTRPV1/HEK293, FLIPR); format: cell-based; details: HEK293 cells transfected with rat TRPV1; capsaicin challenge; mean; > value = solubility limit in assay medium; read-out: Rat IC50
T2 construct: expressed in transfected cells; host or cells: HEK293
Experimental: as §1
This assay was performed similarly to the human assay described above, but using HEK293 cells transfected with rat TRPV1 (rTRPV1/HEK293).
as §2

T1 sequence (Q8NER1 whole entry): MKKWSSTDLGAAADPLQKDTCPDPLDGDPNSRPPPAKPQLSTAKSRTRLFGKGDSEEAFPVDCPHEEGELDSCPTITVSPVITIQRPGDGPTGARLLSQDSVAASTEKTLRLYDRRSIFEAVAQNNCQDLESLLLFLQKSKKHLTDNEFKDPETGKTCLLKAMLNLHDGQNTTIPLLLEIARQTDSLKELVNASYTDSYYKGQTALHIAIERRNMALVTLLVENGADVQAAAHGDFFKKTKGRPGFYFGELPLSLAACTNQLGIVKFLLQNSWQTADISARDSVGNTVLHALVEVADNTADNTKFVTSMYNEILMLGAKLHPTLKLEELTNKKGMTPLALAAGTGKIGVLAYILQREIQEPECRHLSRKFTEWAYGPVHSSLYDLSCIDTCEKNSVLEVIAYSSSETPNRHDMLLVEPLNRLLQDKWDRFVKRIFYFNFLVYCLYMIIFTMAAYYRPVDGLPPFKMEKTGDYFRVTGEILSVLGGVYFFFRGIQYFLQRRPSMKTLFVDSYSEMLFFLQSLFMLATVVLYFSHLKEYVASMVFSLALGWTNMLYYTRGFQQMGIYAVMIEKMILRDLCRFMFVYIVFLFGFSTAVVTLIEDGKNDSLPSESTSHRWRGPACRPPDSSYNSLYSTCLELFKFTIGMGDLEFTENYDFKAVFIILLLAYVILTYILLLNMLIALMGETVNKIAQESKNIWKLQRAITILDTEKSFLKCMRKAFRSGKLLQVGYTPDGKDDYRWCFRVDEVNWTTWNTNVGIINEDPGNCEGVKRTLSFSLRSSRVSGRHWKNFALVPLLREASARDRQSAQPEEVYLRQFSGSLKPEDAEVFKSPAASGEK
T2 sequence (O35433 whole entry): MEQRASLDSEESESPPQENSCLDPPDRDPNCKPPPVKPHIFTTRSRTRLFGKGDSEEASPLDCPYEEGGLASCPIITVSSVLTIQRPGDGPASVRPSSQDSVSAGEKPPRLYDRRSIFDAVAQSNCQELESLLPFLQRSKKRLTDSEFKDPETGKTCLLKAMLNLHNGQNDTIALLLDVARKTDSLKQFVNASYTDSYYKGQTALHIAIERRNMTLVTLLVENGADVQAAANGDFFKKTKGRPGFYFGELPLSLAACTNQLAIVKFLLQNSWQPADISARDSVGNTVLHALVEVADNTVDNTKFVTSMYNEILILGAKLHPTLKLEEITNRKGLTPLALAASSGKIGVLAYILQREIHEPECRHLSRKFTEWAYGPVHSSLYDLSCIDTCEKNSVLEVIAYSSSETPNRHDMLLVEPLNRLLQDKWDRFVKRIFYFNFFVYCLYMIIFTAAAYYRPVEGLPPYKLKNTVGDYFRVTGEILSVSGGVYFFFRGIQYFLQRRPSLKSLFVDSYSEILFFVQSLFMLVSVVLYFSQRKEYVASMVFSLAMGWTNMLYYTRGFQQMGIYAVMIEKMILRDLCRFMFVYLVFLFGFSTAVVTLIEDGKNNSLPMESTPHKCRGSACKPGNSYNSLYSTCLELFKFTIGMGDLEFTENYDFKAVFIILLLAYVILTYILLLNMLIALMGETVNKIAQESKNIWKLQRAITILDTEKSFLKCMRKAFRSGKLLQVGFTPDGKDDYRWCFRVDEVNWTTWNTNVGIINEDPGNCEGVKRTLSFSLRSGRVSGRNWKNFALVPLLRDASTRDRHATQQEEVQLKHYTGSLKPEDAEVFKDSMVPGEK

SMILES	pIC50 (human TRPV1)	pIC50 (rat TRPV1)
CCN1CCCC1CNc1nc(Nc2ccc(C(F)(F)F)cc2)c2nc(Cc3c(Cl)cccc3Cl)sc2n1 (stereo not shown) [Example 88, 2-(2,6-Dichlorobenzyl)-N^5-[(1-ethylpyrrolidin-2-yl)methyl]-N^7-[4-(trifluoromethyl)phenyl][1,3]thiazolo[5,4-d]pyrimidine-5,7-diamine]	6.02	5.98
Oc1ccccc1-c1ccccc1Cc1nc2c(Nc3ccc(C(F)(F)F)cc3)ncnc2s1 [Example 106, 2′-[7-(4-Trifluoromethylphenylamino)-thiazolo[5,4-d]pyrimidin-2-ylmethyl]-biphenyl-2-ol]	6.00	6.46
CC(C)C1CCCN1c1nc(Nc2ccc(C(F)(F)F)cc2)c2nc(Cc3c(Cl)cccc3Cl)sc2n1 (stereo not shown) [Example 68, [2-(2,6-Dichloro-benzyl)-5-(2-isopropyl-pyrrolidin-1-yl)-thiazolo[5,4-d]pyrimidin-7-yl]-(4-trifluoromethyl-phenyl)-amine]	5.63	5.77
FC(F)(F)c1ccc(Nc2ncnc3sc(Cc4ccccc4C(F)(F)F)nc23)nc1 [Example 95, 2-[2-(Trifluoromethyl)benzyl]-N-[5-(trifluoromethyl)pyridin-2-yl][1,3]thiazolo[5,4-d]pyrimidin-7-amine]	6.53	6.92
Cc1cccc(C)c1Cc1nc2c(Nc3ccc(C(F)(F)F)cc3)ncnc2s1 [Example 58, 2-(2,6-Dimethylbenzyl)-N-[4-(trifluoromethyl)phenyl][1,3]thiazolo[5,4-d]pyrimidin-7-amine]	7.12	7.09
Cc1ccccc1Cc1nc2c(Nc3ccc(S(C)(=O)=O)cc3)ncnc2s1 [Example 19, 2-(2-Methylbenzyl)-N-[4-(methylsulfonyl)phenyl][1,3]thiazolo[5,4-d]pyrimidin-7-amine]	6.33	6.61
CC(C)(C)c1nnc(Nc2ncnc3sc(Cc4c(Cl)cccc4Cl)nc23)s1 [Example 99, N-(5-tert-Butyl-1,3,4-thiadiazol-2-yl)-2-(2,6-dichlorobenzyl)[1,3]thiazolo[5,4-d]pyrimidin-7-amine]	–	6.71
Cc1nc(Nc2ccc(C(F)(F)F)cc2)c2nc(Cc3c(Cl)cccc3Cl)sc2n1 [Example 6, [2-(2,6-Dichloro-benzyl)-5-methyl-thiazolo[5,4-d]pyrimidin-7-yl]-(4-trifluoromethyl-phenyl)-amine]	7.64	7.82
CS(=O)(=O)c1ccc(Nc2ncnc3sc(Cc4ccccc4Cl)nc23)cc1 [Example 22, 2-(2-Chlorobenzyl)-N-[4-(methylsulfonyl)phenyl][1,3]thiazolo[5,4-d]pyrimidin-7-amine]	6.55	7.48
FC(F)(F)c1ccc(Nc2nc(NCCN3CCOCC3)nc3sc(Cc4c(Cl)cccc4Cl)nc23)cc1 [Example 65, 2-(2,6-Dichloro-benzyl)-N^5-(2-morpholin-4-yl-ethyl)-N^7-(4-trifluoromethyl-phenyl)-thiazolo[5,4-d]pyrimidine-5,7-diamine trifluoroacetic acid salt]	6.34	6.58
FC(F)(F)c1ccc(Nc2ncnc3sc(Cc4ccccc4C(F)(F)F)nc23)cc1 [Example 30, 2-[2-(Trifluoromethyl)benzyl]-N-[4-(trifluoromethyl)phenyl][1,3]thiazolo[5,4-d]pyrimidin-7-amine]	–	8.40
FC(F)(F)c1ccc(Nc2ncnc3sc(Cc4ccccc4C(F)(F)F)nc23)cn1 [Example 31, 2-[2-(Trifluoromethyl)benzyl]-N-[6-(trifluoromethyl)pyridin-3-yl][1,3]thiazolo[5,4-d]pyrimidin-7-amine]	–	7.89
CC(C)Nc1nc(Nc2ccc(C(F)(F)F)cc2)c2nc(Cc3c(Cl)cccc3Cl)sc2n1 [Example 72, 2-(2,6-Dichloro-benzyl)-N^5-isopropyl-N^7-(4-trifluoromethyl-phenyl)-thiazolo[5,4-d]pyrimidine-5,7-diamine]	–	7.14
O=S(=O)(c1ccc(Nc2ncnc3sc(Cc4c(Cl)cccc4Cl)nc23)cc1)N1CCNCC1 [Example 28, 2-(2,6-Dichlorobenzyl)-N-[4-(piperazin-1-ylsulfonyl)phenyl][1,3]thiazolo[5,4-d]pyrimidin-7-amine]	–	< 5.65
COC(=O)C(C)(C)c1ccc(Nc2ncnc3sc(Cc4c(Cl)cccc4Cl)nc23)cc1 [Example 26, Methyl 2-(4-{[2-(2,6-dichlorobenzyl)[1,3]thiazolo[5,4-d]pyrimidin-7-yl]amino}phenyl)-2-methylpropanoate]	–	7.13
CSc1nc(Nc2ccc(C(F)(F)F)cc2)c2nc(Cc3c(Cl)cccc3Cl)sc2n1 [Example 5, [2-(2,6-Dichloro-benzyl)-5-methylsulfanyl-thiazolo[5,4-d]pyrimidin-7-yl]-(4-trifluoromethyl-phenyl)-amine]	–	< 5.18
CSc1ccc(Nc2ncnc3sc(Cc4c(Cl)cccc4Cl)nc23)cn1 [Example 38, 2-(2,6-Dichlorobenzyl)-N-[6-(methylsulfanyl)pyridin-3-yl][1,3]thiazolo[5,4-d]pyrimidin-7-amine]	–	7.00
COC[C@@H]1CCCN1c1nc(Nc2ccc(C(F)(F)F)cc2)c2nc(Cc3c(Cl)cccc3Cl)sc2n1 [Example 71, (S)-[2-(2,6-Dichloro-benzyl)-5-(2-methoxymethyl-pyrrolidin-1-yl)-thiazolo[5,4-d]pyrimidin-7-yl]-(4-trifluoromethyl-phenyl)-amine]	–	5.61
FC(F)(F)c1ccc(Nc2nc(NCCN3CCCC3)nc3sc(Cc4c(Cl)cccc4Cl)nc23)cc1 [Example 82, 2-(2,6-Dichloro-benzyl)-N^5-(2-pyrrolidin-1-yl-ethyl)-N^7-(4-trifluoromethyl-phenyl)-thiazolo[5,4-d]pyrimidine-5,7-diamine trifluoroacetic acid salt]	–	6.02
FC(F)(F)c1nnc(Nc2ncnc3sc(Cc4c(Cl)cccc4Cl)nc23)s1 [Example 98, 2-(2,6-Dichlorobenzyl)-N-[5-(trifluoromethyl)-1,3,4-thiadiazol-2-yl][1,3]thiazolo[5,4-d]pyrimidin-7-amine]	–	5.98
CC(C)N1CCN(c2nc(Nc3ccc(C(F)(F)F)cc3)c3nc(Cc4c(Cl)cccc4Cl)sc3n2)CC1 [Example 75, [2-(2,6-Dichloro-benzyl)-5-(4-isopropyl-piperazin-1-yl)-thiazolo[5,4-d]pyrimidin-7-yl]-(4-trifluoromethyl-phenyl)-amine trifluoroacetic acid salt]	–	6.88
FC(F)(F)c1ccc(Nc2ncnc3sc(Cc4ccc(Cl)cc4Cl)nc23)cc1 [Example 27, 2-(2,4-Dichlorobenzyl)-N-[4-(trifluoromethyl)phenyl][1,3]thiazolo[5,4-d]pyrimidin-7-amine]	–	7.37
FC(F)(F)c1ccc(Nc2ncnc3sc(Cc4ccc(Cl)cc4Cl)nc23)cn1 [Example 29, 2-(2,4-Dichlorobenzyl)-N-[6-(trifluoromethyl)pyridin-3-yl][1,3]thiazolo[5,4-d]pyrimidin-7-amine]	–	6.22
FC(F)(F)c1ccc(Nc2nc(N3CCC3)nc3sc(Cc4c(Cl)cccc4Cl)nc23)cc1 [Example 73, [5-Azetidin-1-yl-2-(2,6-dichloro-benzyl)-thiazolo[5,4-d]pyrimidin-7-yl]-(4-trifluoromethyl-phenyl)-amine]	–	7.20
FC(F)(F)c1ccc(Nc2nc(N3CCNCC3)nc3sc(Cc4c(Cl)cccc4Cl)nc23)cc1 [Example 74, [2-(2,6-Dichloro-benzyl)-5-piperazin-1-yl-thiazolo[5,4-d]pyrimidin-7-yl]-(4-trifluoromethyl-phenyl)-amine trifluoroacetic acid salt]	–	< 5.18
FC(F)(F)c1ccc(Nc2nc(N3CCCCC3)nc3sc(Cc4c(Cl)cccc4Cl)nc23)cc1 [Example 81, [2-(2,6-Dichloro-benzyl)-5-piperidin-1-yl-thiazolo[5,4-d]pyrimidin-7-yl]-(4-trifluoromethyl-phenyl)-amine]	–	7.85
CC(CO)Nc1nc(Nc2ccc(C(F)(F)F)cc2)c2nc(Cc3c(Cl)cccc3Cl)sc2n1 (stereo not shown) [Example 70, 2-[2-(2,6-Dichloro-benzyl)-7-(4-trifluoromethyl-phenylamino)-thiazolo[5,4-d]pyrimidin-5-ylamino]-propan-1-ol]	–	5.99
CC(C)COc1nc(Nc2ccc(C(F)(F)F)cc2)c2nc(Cc3c(Cl)cccc3Cl)sc2n1 [Example 103, [2-(2,6-Dichloro-benzyl)-5-isobutoxy-thiazolo[5,4-d]pyrimidin-7-yl]-(4-trifluoromethyl-phenyl)-amine]	–	7.80
